Patent US12296024B2, “Modified zinc oxide nanocomposite, antibiotic composition comprising the same, and combination preparation with the same” (UIF (University Industry Foundation), Yonsei University, priority 2021, dated 2025)

Test system: Aspergillus spores
Experiment: Effect of ions on fungal growth
Assay type: cell-based
Settings: 1000 Aspergillus spores/dish, 37° C., day 3 of culture, FIG. 8B
Experimental: To investigate the effect of ions on fungal growth, salt solutions were added at a high molecular concentration (0.1 M, 10 μL) and a low molecular concentration ([…], 10 μL) and fungi were cultured at 37° C. under conditions of 1000 Aspergillus spores/dish. The results are illustrated in FIG. 8B based on the colonies on day 3 of culture.

Structure (SMILES) | effect of ions on fungal growth compared with Na+, Mg2+ or NH4+ ions
O=[N+]([O-])[O-].O=[N+]([O-])[O-].[Zn+2] [Zn(NO3)2] | greater effect
[Cl-].[Cl-].[Zn+2] [ZnCl2] | greater effect
